The values that follow come from patent publication US20140171357A1, “VANCOMYCIN DERIVATIVES” (Seachald Pharmaceuticals, Inc., priority 2011, published 2014).

One experiment has as its system B. anthracis Sterne 105. Type of experiment: cell-based, Bacillus anthracis. The settings on record: Tween 80 0.002% medium, serum condition not stated.
In experiment [1] the test system is methicillin-susceptible S. aureus (MSSA, 22). The experiment in a line: MIC broth microdilution, MSSA. The note with it: for MIC50 / MIC90: Staphylococcus aureus, MSSA.
The test system of experiment [2] is methicillin-resistant S. aureus (MRSA, 22). The experiment can be described thus: MIC broth microdilution, MRSA. The note with it: for MIC50 / MIC90: Staphylococcus aureus, MRSA.
Experiment [3] deals with vancomycin-intermediate S. aureus (VISA, 5). The experiment in a line: MIC broth microdilution, VISA.
Experiment [4] has as its system vancomycin-resistant S. aureus (VRSA, 6). The experiment in a line: MIC broth microdilution, VRSA.
Experiment [5] concerns heterogeneous VISA (hVISA, 10). The experiment can be described thus: MIC broth microdilution, hVISA.
A further experiment relates to S. pneumoniae (22). The experiment in a line: MIC broth microdilution, S. pneumoniae. The note with it: S. pneumoniae (22); MHB + lysed horse blood.
The subject of experiment [6] is Staphylococcus epidermidis (43 strains). The experiment can be described thus: MIC broth microdilution, S. epidermidis. The note with it: for MIC50 / MIC90: Staphylococcus epidermidis.
The test system of experiment [7] is VanA vancomycin-resistant E. faecium (10). The experiment in a line: MIC broth microdilution, VanA E. faecium. The settings on record: for MIC50 / MIC90: Enterococcus faecium.
Experiment [8] has as its system VanB vancomycin-resistant E. faecium (10). The experiment in a line: MIC broth microdilution, VanB E. faecium. The settings on record: for MIC50 / MIC90: Enterococcus faecium.
For the next experiment, the system named is S. aureus ATCC 25923. The experiment can be described thus: Neutropenic murine thigh infection model. The settings on record: for AUCc-t (AUC difference between control and treated animals): 24 h time kill.
The subject of experiment [9] is VanA vancomycin-resistant E. faecalis (11). The experiment in a line: MIC broth microdilution, VanA E. faecalis. The settings on record: for MIC50 / MIC90: Enterococcus faecalis.
Experiment [10] deals with VanB vancomycin-resistant E. faecalis (12). The experiment in a line: MIC broth microdilution, VanB E. faecalis. The note with it: for MIC50 / MIC90: Enterococcus faecalis.
The test system of experiment [11] is Staphylococcus aureus (65 strains). The experiment in a line: MIC broth microdilution, S. aureus all isolates. The note with it: for MIC50 / MIC90: Staphylococcus aureus.
Experiment [12] has as its system β-hemolytic streptococci (23). The experiment can be described thus: MIC broth microdilution, β-hemolytic streptococci.
The subject of another experiment is VanC enterococci (22). The experiment in a line: MIC broth microdilution, vanC-carrying enterococci.
The test system of experiment [13] is vancomycin-susceptible E. faecium (21). The experiment in a line: MIC broth microdilution, vancomycin-susceptible E. faecium. The settings on record: for MIC50 / MIC90: Enterococcus faecium.
In experiment [14] the test system is vancomycin-susceptible E. faecalis (23). The experiment can be described thus: MIC broth microdilution, vancomycin-susceptible E. faecalis. The settings on record: for MIC50 / MIC90: Enterococcus faecalis.
The subject of a further experiment is E. faecalis. The experiment in a line: MIC broth microdilution, E. faecalis regardless of vancomycin susceptibility. The note with it: Enterococcus faecalis.
Setting [15] is: 1 mg/kg single intraperitoneal dose.
The mark [16] stands for this setting: 4 mg/kg single intraperitoneal dose.
Where [17] appears, read: 16 mg/kg single intraperitoneal dose.
[18] abbreviates: S. aureus (65), all resistance subsets.
The mark [19] stands for this setting: β-hemolytic streptococci (23), MHB + lysed horse blood.
[20] abbreviates: E. faecium, vancomycin-susceptible (21).
The mark [21] stands for this setting: E. faecalis, vancomycin-susceptible (23).

SMILES strings stand for the structures. Values after ≈ are worked out from the molar mass of the structure shown.

With `CNC(CC(C)C)C(=O)NC1C(=O)NC(CC(N)=O)C(=O)NC2C(=O)NC3C(=O)NC(C(=O)NC(C(=O)NCCOCCOCCOCCN)c4cc(O)c(CNCCOCCOCCOCCN)c(O)c4-c4cc3ccc4O)C(O)c3ccc(c(Cl)c3)Oc3cc2cc(c3OC2OC(CO)C(O)C(O)C2OC2CC(C)(NCc3ccc(-c4ccc(Cl)cc4)cc3)C(O)C(C)O2)Oc2ccc(cc2Cl)C1O` (stereo not drawn) [Compound 24], the MIC against B. anthracis Sterne 105 was determined as 0.03 µg/mL (≈ 0.0148 µM).
On to `CNC(CC(C)C)C(=O)NC1C(=O)NC(CC(N)=O)C(=O)NC2C(=O)NC3C(=O)NC(C(=O)NC(C(=O)O)c4cc(O)c(CNCCOCCOCC[N+](C)(C)C)c(O)c4-c4cc3ccc4O)C(O)c3ccc(c(Cl)c3)Oc3cc2cc(c3OC2OC(CO)C(O)C(O)C2OC2CC(C)(NCc3ccc(OCc4ccc(Cl)c(Cl)c4)cc3)C(O)C(C)O2)Oc2ccc(cc2Cl)C1O` (stereo not drawn) [Compound 29], for which the MIC against B. anthracis Sterne 105 stood at 0.03 µg/mL. Besides, the “MIC 50%” value in experiment [1] (MSSA (22)) amounted to 0.06 µg/mL; in experiment [2] (MRSA (22)), 0.06 µg/mL; in experiment [3] it was 0.25 µg/mL; in [4], 4 µg/mL; in experiment [5], 0.06 µg/mL; in the experiment on S. pneumoniae (22), 0.03 µg/mL. Also, the “MIC 50%” value came to 0.03 µg/mL in [6] (S. epidermidis (43)); 1 µg/mL in [7] (E. faecium, VanA (10)); 0.06 µg/mL in experiment [8] (E. faecium, VanB (10)); 4 µg/mL in [9] (E. faecalis, VanA (11)); 0.12 µg/mL in [10] (E. faecalis, VanB (12)); 0.06 µg/mL in [11] (setting [18]). Besides, the “MIC 50%” value in [12] (setting [19]) is 0.03 µg/mL; in the experiment with VanC enterococci (22) (VanC enterococci (22)) it was 0.12 µg/mL; in [13] (setting [20]), 0.03 µg/mL; in [14] (setting [21]) it was 0.12 µg/mL. Besides, the “MIC 90%” value in experiment [1] (MSSA (22)) came out at 0.12 µg/mL; in experiment [2] (MRSA (22)) it was 0.12 µg/mL; in experiment [5] it was 0.12 µg/mL; with S. pneumoniae (22) it was 0.06 µg/mL; in experiment [6] (S. epidermidis (43)), 0.06 µg/mL; in experiment [7] (E. faecium, VanA (10)) it was 2 µg/mL. The “MIC 90%” value was 0.06 µg/mL in [8] (E. faecium, VanB (10)); 4 µg/mL in experiment [9] (E. faecalis, VanA (11)); 0.12 µg/mL in experiment [10] (E. faecalis, VanB (12)); 0.25 µg/mL in [11] (setting [18]); 0.12 µg/mL in [12] (setting [19]); 0.5 µg/mL in the experiment on VanC enterococci (22) (VanC enterococci (22)). In addition, the figures for the “MIC 90%” value in experiment [13] (setting [20]) and in experiment [14] (setting [21]) were 0.06 µg/mL and 0.12 µg/mL, respectively. Also, the entries for the “Max Kill (maximum decrease from initial infection level)” value in the experiment with S. aureus ATCC 25923 (setting [15]), with S. aureus ATCC 25923 (setting [16]) and in the experiment with S. aureus ATCC 25923 (setting [17]) were 0.08 Log10 CFU/thigh, 0.07 Log10 CFU/thigh and −1.05 Log10 CFU/thigh, respectively. Further, the entries for the “AUCc-t (AUC difference between control and treated animals)” value in the experiment with S. aureus ATCC 25923 (setting [15]), in the experiment on S. aureus ATCC 25923 (setting [16]) and with S. aureus ATCC 25923 (setting [17]) were 17.7 (Log10 CFU/thigh)/hr, 22.6 (Log10 CFU/thigh)/hr and 45.2 (Log10 CFU/thigh)/hr, respectively. The “in vivo efficacy against S. aureus (in words)” value in the experiment with S. aureus ATCC 25923 (neutropenic soft tissue infection model) was “bactericidal characteristics and prolonged in vivo activity”. In experiment [12] (β-hemolytic streptococci), the “fold more potent than teicoplanin and daptomycin” value is “two- to four”. Moreover, the “fold more potent than vancomycin” value in experiment [12] (β-hemolytic streptococci) is “four- to eight”.
`CCCCCCCCCC(=O)N[C@@H](Cc1c[nH]c2ccccc12)C(=O)N[C@H](CC(N)=O)C(=O)N[C@@H](CC(=O)O)C(=O)N[C@@H]1C(=O)NCC(=O)N[C@@H](CCCN)C(=O)N[C@@H](CC(=O)O)C(=O)N[C@H](C)C(=O)N[C@@H](CC(=O)O)C(=O)NCC(=O)N[C@H](CO)C(=O)N[C@@H]([C@H](C)CC(=O)O)C(=O)N[C@@H](CC(=O)c2ccccc2N)C(=O)O[C@@H]1C` [Daptomycin, reference compound]: the MIC50 in experiment [1] stood at 0.25 µg/mL (≈ 0.154 µM); in experiment [2], 0.25 µg/mL (≈ 0.154 µM); in [6], 0.25 µg/mL (≈ 0.154 µM); in experiment [7] it was 2 µg/mL (≈ 1.23 µM); in [8], 2 µg/mL (≈ 1.23 µM); in [9], 1 µg/mL (≈ 0.617 µM). For the same compound, the MIC50 in [10] is 0.5 µg/mL (≈ 0.309 µM); in [11], 0.25 µg/mL (≈ 0.154 µM); in the experiment with VanC enterococci (22), 1 µg/mL (≈ 0.617 µM); in [13], 2 µg/mL (≈ 1.23 µM); in experiment [14], 1 µg/mL (≈ 0.617 µM); in the experiment on E. faecalis, 0.5 to 1 µg/mL (≈ 0.309 to 0.617 µM). For the same compound, the MIC90 in experiment [1] came to 0.5 µg/mL (≈ 0.309 µM); in experiment [2] it was 0.5 µg/mL (≈ 0.309 µM); in [6] it was 0.5 µg/mL (≈ 0.309 µM); in experiment [7], 2 µg/mL (≈ 1.23 µM); in [8], 2 µg/mL (≈ 1.23 µM); in experiment [9] it was 2 µg/mL (≈ 1.23 µM). Further, the MIC90 in experiment [10] was 1 µg/mL (≈ 0.617 µM); in experiment [11], 1 µg/mL (≈ 0.617 µM); in the experiment on VanC enterococci (22) it was 2 µg/mL (≈ 1.23 µM); in experiment [13] it was 2 µg/mL (≈ 1.23 µM); in experiment [14], 2 µg/mL (≈ 1.23 µM); with E. faecalis, 1 to 2 µg/mL (≈ 0.617 to 1.23 µM).
Turning to `CC(=O)NC[C@H]1CN(c2ccc(N3CCOCC3)c(F)c2)C(=O)O1` [Linezolid, reference compound], the MIC50 in [1] was 1 µg/mL (≈ 2.96 µM); in experiment [2], 1 µg/mL (≈ 2.96 µM); in experiment [6], 0.5 µg/mL (≈ 1.48 µM); in [7], 1 µg/mL (≈ 2.96 µM); in [8], 1 µg/mL (≈ 2.96 µM); in experiment [9] it was 1 µg/mL (≈ 2.96 µM). Further, the MIC50 (in [10]; in experiment [11]; against VanC enterococci (22); in experiment [13]; in experiment [14]; against E. faecalis) was 1 µg/mL (≈ 2.96 µM) in each case. Further, the MIC90 in [1], in [2], in experiment [6], in experiment [7], in [8] and in [9] was 1 µg/mL (≈ 2.96 µM) in each case. Also, the MIC90 stood at 1 µg/mL (≈ 2.96 µM) in [10]; 1 µg/mL (≈ 2.96 µM) in experiment [11]; 2 µg/mL (≈ 5.93 µM) in the experiment with VanC enterococci (22); 2 µg/mL (≈ 5.93 µM) in experiment [13]; 1 µg/mL (≈ 2.96 µM) in [14]; 1 µg/mL (≈ 2.96 µM) in the experiment on E. faecalis.
With `CNC(CC(C)C)C(=O)NC1C(=O)NC(CC(N)=O)C(=O)NC2C(=O)NC3C(=O)NC(C(=O)NC(C(=O)NCCOCCOCCOCCN(C)C)c4cc(O)c(CNCCOCCOCCOCCN(C)C)c(O)c4-c4cc3ccc4O)C(O)c3ccc(c(Cl)c3)Oc3cc2cc(c3OC2OC(CO)C(O)C(O)C2OC2CC(C)(NCc3ccc(-c4ccc(Cl)cc4)cc3)C(O)C(C)O2)Oc2ccc(cc2Cl)C1O` (stereo not drawn) [Compound 23], the minimal inhibitory concentration (MIC) in the experiment on B. anthracis Sterne 105 turned out to be 0.12 µg/mL (≈ 0.0576 µM).
